18 molecules from patent US8952128B2, “Somatostatin-dopamine chimeric analogs” (priority 2012, dated 2015) can be followed below.

Bridge positions count the residues as written; N and C are the ends. Square brackets hold non-standard residues; d marks the D form. Peptide text beside a SMILES is read from it. * marks the point of attachment. X2 = CN1C[C@H](CSCC(=O)*)C[C@@H]2c3cccc4[nH]cc(c34)C[C@H]21; Phe(4-F) = N[C@@H](Cc1ccc(F)cc1)C(=O)O; 4Pal = N[C@@H](Cc1ccncc1)C(=O)O

In one test the target is hSSTR2 (Homo sapiens (Human), UniProt P30874). Put plainly: Intracellular calcium mobilization assay (FLIPR Calcium 4), hSSTR2.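 Note: agonist activity read as intracellular calcium rise in cells expressing human SSTR2, loaded with a calcium-sensitive dye for 60 min at 37 °C, measured by FLIPR.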 Format: cell-based. The settings on record: Student's t-test, one-tailed, p <0.05.
hSSTR2, sequence (P30874 whole entry): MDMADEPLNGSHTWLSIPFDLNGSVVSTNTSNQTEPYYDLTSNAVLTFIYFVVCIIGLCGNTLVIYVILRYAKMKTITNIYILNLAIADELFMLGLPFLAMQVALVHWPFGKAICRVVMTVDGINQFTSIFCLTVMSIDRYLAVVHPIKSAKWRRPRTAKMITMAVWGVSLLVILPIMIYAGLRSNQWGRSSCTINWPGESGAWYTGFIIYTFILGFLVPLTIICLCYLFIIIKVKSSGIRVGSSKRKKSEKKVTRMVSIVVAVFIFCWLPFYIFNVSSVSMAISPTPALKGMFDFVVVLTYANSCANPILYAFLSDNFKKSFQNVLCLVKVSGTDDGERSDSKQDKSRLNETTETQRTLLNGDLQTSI
Procedure: The ability of select compounds according to the present invention to activate hSSTR2 and hDRD2 was determined by the intracellular calcium mobilization assay using FLIPR Calcium 4 assay kit (Molecular Devices).
Cells expressing hSSTR2 or hDRD2 were plated in 384-well microplates in tissue culture media and incubated for 16-24 hours at 37° C. in a humidified atmosphere with 5% CO2. Medium was replaced by loading buffer containing Hank's buffered saline, 20 mM HEPES, 2.5 mM probenecid and Calcium 4 dye, and the plates were incubated at 37° C. for 60 minutes.
With `C[C@@H](O)[C@@H]1NC(=O)[C@H](CCCCN)NC(=O)[C@@H](Cc2c[nH]c3ccccc23)NC(=O)[C@H](Cc2ccncc2)NC(=O)[C@H](Cc2ccccc2)NC(=O)[C@H](CCCNC(=N)N)NC(=O)[C@H](NC(=O)CSC[C@@H]2C[C@@H]3c4cccc5[nH]cc(c45)C[C@H]3N(C)C2)CCCCNC(=O)[C@H](Cc2ccc(O)cc2)NC1=O` [Compound 25, Dop1-cyclo(DLys-Arg-Phe-4Pal-DTrp-Lys-Thr-Tyr)] (X2-[dK]RF[4Pal][dW]KTY; lactam 1-C), the “improvement in EC50 over Reference Compound A” value is “statistically significant improvement”.

Still in this test, the particulars now being: calcium mobilization.
As to `C[C@@H](O)[C@@H]1NC(=O)[C@H](CCCCN)NC(=O)[C@@H](Cc2c[nH]c3ccccc23)NC(=O)[C@H](Cc2ccccc2)NC(=O)[C@H](Cc2ccccc2)NC(=O)[C@H](CCCNC(=N)N)NC(=O)[C@H](NC[C@H](Cc2ccc(O)cc2)NC(=O)CSC[C@@H]2C[C@@H]3c4cccc5[nH]cc(c45)C[C@H]3N(C)C2)CCCCNC(=O)[C@H](Cc2ccccc2)NC1=O` [Compound 32, Dop1-Tyr-psi(CH2NH)-cyclo(DLys-Arg-Phe-Phe-DTrp-Lys-Thr-Phe)], the “improvement in EC50 and/or % Emax over Reference Compound B” value is “statistically significant improvement”.
Take `C[C@@H](O)[C@@H]1NC(=O)[C@H](CCCCN)NC(=O)[C@@H](Cc2c[nH]c3ccccc23)NC(=O)[C@H](Cc2ccccc2)NC(=O)[C@H](Cc2ccccc2)NC(=O)[C@H](CCCNC(=N)N)NC(=O)[C@H](NC[C@H](Cc2ccc(O)cc2)NC(=O)CSC[C@@H]2C[C@@H]3c4cccc5[nH]cc(c45)C[C@H]3N(C)C2)CCCCNC(=O)[C@H](Cc2ccc(O)cc2)NC1=O` [Compound 33, Dop1-Tyr-psi(CH2NH)-cyclo(DLys-Arg-Phe-Phe-DTrp-Lys-Thr-Tyr)]: the “improvement in EC50 and/or % Emax over Reference Compound B” value is “statistically significant improvement”.

Still in this test, the particulars now being: maximal effect in percentage of the maximal effect of SRIF-14.
On to “Dop1-cyclo(DLys-Arg-Phe-Phe-DTrp-Lys-Thr-Phe) [Compound 44]”, for which the “hSSTR2 % Emax ± SEM” value came out at 97.1 ± 5.9%.

Staying with this test, now noted: read-out: hSSTR2 % Emax ± SEM.
Turning to `C[C@@H](O)[C@@H]1NC(=O)[C@H](CCCCN)NC(=O)[C@@H](Cc2c[nH]c3ccccc23)NC(=O)[C@H](Cc2ccncc2)NC(=O)[C@H](Cc2ccccc2)NC(=O)[C@H](CCCNC(=N)N)NC(=O)[C@H](NC[C@H](CCCCNC(=O)C[S+]([O-])C[C@@H]2C[C@@H]3c4cccc5[nH]cc(c45)C[C@H]3N(C)C2)NC(=O)C[S+]([O-])C[C@@H]2C[C@@H]3c4cccc5[nH]cc(c45)C[C@H]3N(C)C2)CCCCNC(=O)[C@H](Cc2ccc(O)cc2)NC1=O` (stereo partly drawn) [Compound 16, Dop1(SO)-Lys[Dop1(SO)]-psi(CH2NH)-cyclo(DLys-Arg-Phe-4Pal-DTrp-Lys-Thr-Tyr)], the maximal response (Emax) was 103 ± 2.3%.
For the molecule `C[C@@H](O)[C@@H]1NC(=O)[C@H](CCCCN)NC(=O)[C@@H](Cc2c[nH]c3ccccc23)NC(=O)[C@H](Cc2ccccc2)NC(=O)[C@H](Cc2ccccc2)NC(=O)[C@H](CCCNC(=N)N)NC(=O)[C@H](NCCSC[C@@H]2C[C@@H]3c4cccc5[nH]cc(c45)C[C@H]3N(C)C2)CCCCNC(=O)[C@H](Cc2cccc(F)c2)NC1=O` [Compound 6C, Dop1-psi(CH2NH)-cyclo(DLys-Arg-Phe-Phe-DTrp-Lys-Thr-3FPhe)], the maximal effect (Emax) stood at 97.7 ± 6.9%.
Take `C[C@@H](O)[C@@H]1NC(=O)[C@H](CCCCN)NC(=O)[C@@H](Cc2c[nH]c3ccccc23)NC(=O)[C@H](Cc2ccccc2)NC(=O)[C@H](Cc2ccccc2)NC(=O)[C@H](CCCNC(=N)N)NC(=O)[C@H](NC[C@H](Cc2ccc(O)cc2)NC(=O)CSC[C@@H]2C[C@@H]3c4cccc5[nH]cc(c45)C[C@H]3N(C)C2)CCCCNC(=O)[C@H](Cc2ccccc2)NC1=O` [Compound 32, Dop1-Tyr-psi(CH2NH)-cyclo(DLys-Arg-Phe-Phe-DTrp-Lys-Thr-Phe)]: the maximal response (Emax) was 87.5 ± 4.3%.
Turning to `C[C@@H](O)[C@@H]1NC(=O)[C@H](CCCCN)NC(=O)[C@@H](Cc2c[nH]c3ccccc23)NC(=O)[C@H](Cc2ccccc2)NC(=O)[C@H](Cc2ccccc2)NC(=O)[C@H](CCCNC(=N)N)NC(=O)[C@H](NC[C@H](Cc2ccc(O)cc2)NC(=O)CSC[C@@H]2C[C@@H]3c4cccc5[nH]cc(c45)C[C@H]3N(C)C2)CCCCNC(=O)[C@H](Cc2ccc(O)cc2)NC1=O` [Compound 33, Dop1-Tyr-psi(CH2NH)-cyclo(DLys-Arg-Phe-Phe-DTrp-Lys-Thr-Tyr)], the maximum response (Emax) was found to be 95.7 ± 5.1%.
As to `C[C@@H](O)[C@@H]1NC(=O)[C@H](CCCCN)NC(=O)[C@@H](Cc2c[nH]c3ccccc23)NC(=O)[C@H](Cc2ccccc2)NC(=O)[C@H](Cc2ccccc2)NC(=O)[C@H](CCCNC(=N)N)NC(=O)[C@H](NCCCS(=O)(=O)C[C@@H]2C[C@@H]3c4cccc5[nH]cc(c45)C[C@H]3N(C)C2)CCCCNC(=O)[C@H](Cc2ccc(F)cc2)NC1=O` [Compound 48, (D-6-methyl-8β-ergolinylmethyl)-sulfonylpropyl-cyclo(DLys-Arg-Phe-Phe-DTrp-Lys-Thr-4FPhe)], the Emax amounted to 95.5 ± 11.9%.
On to `C[C@@H](O)[C@@H]1NC(=O)[C@H](CCCCN)NC(=O)[C@@H](Cc2c[nH]c3ccccc23)NC(=O)[C@H](Cc2ccncc2)NC(=O)[C@H](Cc2ccccc2)NC(=O)[C@H](CCCNC(=N)N)NC(=O)[C@H](NC(=O)CSC[C@@H]2C[C@@H]3c4cccc5[nH]cc(c45)C[C@H]3N(C)C2)CCCCNC(=O)[C@H](Cc2ccc(O)cc2)NC1=O` [Compound 25, Dop1-cyclo(DLys-Arg-Phe-4Pal-DTrp-Lys-Thr-Tyr)] (X2-[dK]RF[4Pal][dW]KTY; lactam 1-C), for which the Emax turned out to be 93.9 ± 6.7%.
As to `CC(=O)N(CCCN[C@@H]1CCCCNC(=O)[C@H](Cc2ccc(F)cc2)NC(=O)[C@H]([C@@H](C)O)NC(=O)[C@H](CCCCN)NC(=O)[C@@H](Cc2c[nH]c3ccccc23)NC(=O)[C@H](Cc2ccccc2)NC(=O)[C@H](Cc2ccccc2)NC(=O)[C@H](CCCNC(=N)N)NC1=O)C[C@@H]1C[C@@H]2c3cccc4[nH]cc(c34)C[C@H]2N(C)C1` [Compound 29A, 3-[N-acetyl-(D-6-methyl-8β-ergolinylmethyl)]-aminopropionyl-psi(CH2NH)-cyclo(DLys-Arg-Phe-Phe-DTrp-Lys-Thr-4FPhe)], the maximal response (Emax) was determined as 100 ± 23.2%.
In the case of `C[C@@H](O)[C@@H]1NC(=O)[C@H](CCCCN)NC(=O)[C@@H](Cc2c[nH]c3ccccc23)NC(=O)[C@H](Cc2ccccc2)NC(=O)[C@H](Cc2ccccc2)NC(=O)[C@H](CCCNC(=N)N)NC(=O)[C@H](NCCSC[C@@H]2C[C@@H]3c4cccc5[nH]cc(c45)C[C@H]3N(C)C2)CCCCNC(=O)[C@H](Cc2c(F)c(F)c(F)c(F)c2F)NC1=O` [Compound 6E, Dop1-psi(CH2NH)-cyclo(DLys-Arg-Phe-Phe-DTrp-Lys-Thr-2,3,4,5,6FPhe)], the Emax is 90.4 ± 6.8%.
Same read-out and setting: the result for `C[C@@H](O)[C@@H]1NC(=O)[C@H](CCCCN)NC(=O)[C@@H](Cc2c[nH]c3ccccc23)NC(=O)[C@H](Cc2ccccc2)NC(=O)[C@H](Cc2ccccc2)NC(=O)[C@H](CCCNC(=N)N)NC(=O)[C@H](NC(=O)CSC[C@@H]2C[C@@H]3c4cccc5[nH]cc(c45)C[C@H]3N(C)C2)CCCCNC(=O)[C@H](Cc2ccc(F)cc2)NC1=O` [Compound 34, Dop1-cyclo(DLys-Arg-Phe-Phe-DTrp-Lys-Thr-4FPhe)] (X2-[dK]RFF[dW]KT[Phe(4-F)]; lactam 1-C) reads 95.1 ± 7.1%; that for `C[C@@H](O)[C@@H]1NC(=O)[C@H](CCCCN)NC(=O)[C@@H](Cc2c[nH]c3ccccc23)NC(=O)[C@H](Cc2ccccc2)NC(=O)[C@H](Cc2ccccc2)NC(=O)[C@H](CCCNC(=N)N)NC(=O)[C@H](NCCSC[C@@H]2C[C@@H]3c4cccc5[nH]cc(c45)C[C@H]3N(C)C2)CCCCNC(=O)[C@H](Cc2ccccc2F)NC1=O` [Compound 6D, Dop1-psi(CH2NH)-cyclo(DLys-Arg-Phe-Phe-DTrp-Lys-Thr-2FPhe)], 96.9 ± 8.7%; that for `CC(=O)N(CCCNC[C@@H]1C[C@@H]2c3cccc4[nH]cc(c34)C[C@H]2N(C)C1)[C@@H]1CCCCNC(=O)[C@H](Cc2ccc(F)cc2)NC(=O)[C@H]([C@@H](C)O)NC(=O)[C@H](CCCCN)NC(=O)[C@@H](Cc2c[nH]c3ccccc23)NC(=O)[C@H](Cc2ccccc2)NC(=O)[C@H](Cc2ccccc2)NC(=O)[C@H](CCCNC(=N)N)NC1=O` [Compound 22, 3-[N-(D-6-methyl-8β-ergolinylmethyl)]-aminopropionyl-psi(CH2NAc)-cyclo(DLys-Arg-Phe-Phe-DTrp-Lys-Thr-4FPhe)], 99.1 ± 12.6%.
In the case of `C[C@@H](O)[C@@H]1NC(=O)[C@H](CCCCN)NC(=O)[C@@H](Cc2c[nH]c3ccccc23)NC(=O)[C@H](Cc2ccncc2)NC(=O)[C@H](Cc2ccccc2)NC(=O)[C@H](CCCNC(=N)N)NC(=O)[C@H](NC[C@H](Cc2ccc(O)cc2)NC(=O)CS(=O)(=O)C[C@@H]2C[C@@H]3c4cccc5[nH]cc(c45)C[C@H]3N(C)C2)CCCCNC(=O)[C@H](Cc2ccccc2)NC1=O` [Compound 21, Dop1(SO2)-Tyr-psi(CH2NH)-cyclo(DLys-Arg-Phe-4Pal-DTrp-Lys-Thr-Phe)], the maximal response (Emax) came out at 100 ± 1.8%.
As to `CC(=O)N(CCCN(C(C)=O)[C@@H]1CCCCNC(=O)[C@H](Cc2ccc(F)cc2)NC(=O)[C@H]([C@@H](C)O)NC(=O)[C@H](CCCCN)NC(=O)[C@@H](Cc2c[nH]c3ccccc23)NC(=O)[C@H](Cc2ccccc2)NC(=O)[C@H](Cc2ccccc2)NC(=O)[C@H](CCCNC(=N)N)NC1=O)C[C@@H]1C[C@@H]2c3cccc4[nH]cc(c34)C[C@H]2N(C)C1` [Compound 28, 3-[N-acetyl-N-(D-6-methyl-8β-ergolinylmethyl)]-aminopropionyl-psi(CH2NAc)-cyclo(DLys-Arg-Phe-Phe-DTrp-Lys-Thr-4FPhe)], the maximal response (Emax) was determined as 98.7 ± 2%.
As for `C[C@@H](O)[C@@H]1NC(=O)[C@H](CCCCN)NC(=O)[C@@H](Cc2c[nH]c3ccccc23)NC(=O)[C@H](Cc2ccccc2)NC(=O)[C@H](Cc2ccccc2)NC(=O)[C@H](CCCNC(=N)N)NC(=O)[C@H](NC[C@H](Cc2ccc(O)cc2)NC(=O)C[S+]([O-])C[C@@H]2C[C@@H]3c4cccc5[nH]cc(c45)C[C@H]3N(C)C2)CCCCNC(=O)[C@H](Cc2ccc(F)cc2)NC1=O` (stereo partly drawn) [Compound 13, Dop1(SO)-Tyr-psi(CH2NH)-cyclo(DLys-Arg-Phe-Phe-DTrp-Lys-Thr-4FPhe)], the Emax came out at 100 ± 0.7%.
The same measure, in the same setting: the result for `C[C@@H](O)[C@@H]1NC(=O)[C@H](CCCCN)NC(=O)[C@@H](Cc2c[nH]c3ccccc23)NC(=O)[C@H](Cc2ccccc2)NC(=O)[C@H](Cc2ccccc2)NC(=O)[C@H](CCCNC(=N)N)NC(=O)[C@H](NCC[S+]([O-])C[C@@H]2C[C@@H]3c4cccc5[nH]cc(c45)C[C@H]3N(C)C2)CCCCNC(=O)[C@H](Cc2ccc(F)cc2)NC1=O` (stereo partly drawn) [Compound 14, Dop1(SO)-psi(CH2NH)-cyclo(DLys-Arg-Phe-Phe-DTrp-Lys-Thr-4FPhe)] reads 102 ± 2.2%; that for `C[C@@H](O)[C@@H]1NC(=O)[C@H](CCCCN)NC(=O)[C@@H](Cc2c[nH]c3ccccc23)NC(=O)[C@H](Cc2ccccc2)NC(=O)[C@H](Cc2ccccc2)NC(=O)[C@H](CCCNC(=N)N)NC(=O)[C@H](NCCCC[C@@H]2C[C@@H]3c4cccc5[nH]cc(c45)C[C@H]3N(C)C2)CCCCNC(=O)[C@H](Cc2ccc(F)cc2)NC1=O` [Compound 2, (D-6-methyl-8β-ergolinyl)-butanoyl-psi(CH2NH)-cyclo(DLys-Arg-Phe-Phe-DTrp-Lys-Thr-4FPhe)], 100 ± 1.7%.
In the case of `C[C@@H](O)[C@@H]1NC(=O)[C@H](CCCCN)NC(=O)[C@@H](Cc2c[nH]c3ccccc23)NC(=O)[C@H](Cc2ccccc2)NC(=O)[C@H](Cc2ccccc2)NC(=O)[C@H](CCCNC(=N)N)NC(=O)[C@@H](NC[C@H](Cc2ccc(O)cc2)NC(=O)CSC[C@@H]2C[C@@H]3c4cccc5[nH]cc(c45)C[C@H]3N(C)C2)CCCCNC(=O)[C@H](Cc2ccccc2)NC1=O` [Compound 31, Dop1-Tyr-psi(CH2NH)-cyclo(Lys-Arg-Phe-Phe-DTrp-Lys-Thr-Phe)], the Emax came out at 85.1 ± 4.7%.
